Laboratory results: patent publication US20260374792A1, “PHENYL-FREE BISCATIONIC QUATERNARY PHOSPHONIUM COMPOUNDS AS ANTIMICROBIAL AGENTS” (priority 2022, published 2026)

Experiments:
[1] = test system: P. aeruginosa (PAO1); experiment: MIC against P. aeruginosa; format: cell-based; conditions: Pseudomonas aeruginosa; P. aeruginosa (PAO1); 72 hours, 37 °C; read-out: MIC
Description: (§1) The term “minimum inhibitory concentration (MIC)” means the lowest concentration of an antimicrobial agent that will inhibit the visible growth of a microorganism after overnight incubation. MIC values against bacteria, for example, the Gram-positive Staphylococcus aureus and Enterococcus faecalis and the Gram-negative Escherichia coli and Pseudomonas aeruginosa were determined by standard methods. See also P. A. Wayne, Methods for Dilution Antimicrobial Tests for Bacteria that Grow Aerobically; Approved Standard, Ninth Edition, 2012, CLSI Document M07-A9, Vol. 32 No. 2.
(§2) Biological testing procedures were adapted from prior work by Melander and coworkers. For all biological assays, laboratory strains of methicillin-susceptible Staphylococcus aureus MSSA (SH1000), Staphylococcus aureus CA-MRSA (USA300-0114), Staphylococcus aureus HA-MRSA (ATCC 33591), Escherichia coli (MC4100), Enterococcus faecalis (OG1RF), Acinetobacter baumannii (ATCC 17978), were grown with shaking at 37 °C overnight from freezer stocks in 5 mL of the indicated media: SH1000, OG1RF, MC4100, USA300-0114, and ATCC 17978 were grown in BDTM Mueller-Hinton broth (MHB), whereas ATCC 33591 was grown in BDTM tryptic soy broth (TSB). The inoculum were then streaked onto Mueller-Hinton agar (MHA) plates and grown overnight at 37 °C. From the plates, single colonies were selected, diluted into 50 mL of fresh media and grown overnight at 37 °C with shaking for use in the MIC assays. Optical density (OD) measurements were obtained using a SpectraMax iD3 plate reader (Molecular Devices, United States).
(§3) Compounds were serially diluted two-fold from stock solutions (1.0 mM) to yield twelve 100 μL test concentrations, wherein the starting concentration of dimethyl sulfoxide (DMSO) was 2.5%. Overnight S. aureus, E. faecalis, E. coli, A. baumannii, USA300-0114 (CA-MRSA), and ATCC 33591 (HA-MRSA) cultures were diluted to ca. 10^6 CFU/mL in MHB or TSB and regrown to mid-exponential phase, as determined by optical density recorded at 600 nm (OD600). All cultures were then diluted again to ca. 10^6 CFU/mL and 100 μL were inoculated into each well of a U-bottom 96-well plate (Corning, 351177) containing 100 μL of compound solution. Plates were incubated statically at 37 °C for 72 hours upon which wells were evaluated visually for bacterial growth. The MIC was determined as the lowest concentration of compound resulting in no bacterial growth visible to the naked eye, based on the highest value in three independent experiments. Aqueous DMSO controls were conducted as appropriate for each compound.
(§4) The prepared library of biscationic amphiphilic compounds was assessed for performance as antibacterial disinfectants by determining the minimum inhibitory concentration (MIC) for each against a panel of bacteria. The bacteria selected for the study were chosen to evaluate the broad spectrum antimicrobial performance of the QPCs, and therefore, included both Gram-positive and Gram-negative bacterial strains, including those with known antimicrobial resistance mechanisms. These bacteria include the Gram-positive strains of methicillin-susceptible Staphylococcus aureus [MSSA; SH1000], community-acquired methicillin-resistant Staphylococcus aureus [CA-MRSA; USA 300-0114], hospital-acquired methicillin-resistant Staphylococcus aureus [HA-MRSA; ATCC 33591] and the […], Escherichia coli [MC4100], Acinetobacter baumannii [ATCC 17498] and Pseudomonas aeruginosa [PAO1].

[2] = test system: panel of bacteria; experiment: MIC across the panel of bacteria (Gram-positive and Gram-negative); format: cell-based; conditions: for MIC: read-out: MIC values; for antimicrobial activity / bioactivity (in words): over the bacterial panel
Description: as §1, §2, §3, §4

[3] = test system: red blood cells; experiment: Red Blood Cell (RBC) Lysis Assay (lysis20); format: cell-based, sheep; conditions: for Lysis20: concentration inducing 20% RBC lysis, sheep blood, 1 hour, 37 °C
Description: RBC lysis assays were performed on mechanically defibrinated sheep blood (Hemostat Labs: DSB030). An aliquot of 1.5 mL blood was placed into a microcentrifuge tube and centrifuged at 3,800 rpm for ten minutes. The supernatant was removed, and the cells were resuspended with 1 mL of phosphate-buffered saline (PBS). The suspension was centrifuged as described above, the supernatant was removed, and cells were resuspended 4 additional times in 1 mL PBS. The final cell suspension was diluted twentyfold with PBS. Compounds were serially diluted with PBS two-fold from stock solutions (1.0 mM) to yield 100 μL of twelve test concentrations on a flat-bottom 96-well plate (Corning, 351172), wherein the starting concentration of DMSO was 2.5%. To each of the wells, 100 μL of the twentyfold suspension dilution was then inoculated. TritonX (1% by volume) served as a positive control (100% lysis marker) and sterile PBS served as a negative control (0% lysis marker). Samples were then placed in an incubator at 37 °C and shaken at 200 rpm. After 1 hour, the samples were centrifuged at 3,800 rpm for ten minutes. The absorbance of the supernatant was measured with a UV spectrometer at a 540 nm wavelength. The concentration inducing 20% RBC lysis was then calculated for each compound based upon the absorbances of the TritonX and PBS controls. Aqueous DMSO controls were conducted as appropriate for each compound.
The potential cytotoxicity of the compounds was also considered with the evaluation of hemolysis (lysis20) assays with 20% lysis of red blood cells serving as an indicator of potentially toxic compounds. Finally, the bioactivity of these compounds were benchmarked against a commercial benzalkonium chloride source (BAC; 70% benzyldimethyldodecylammonium chloride, and 30% benzyldimethyltetradecylammonium chloride) as well as some previously reported disinfectant compounds from the inventors' groups; included were bisQPC ^PhP6P-10,10 as well as ^PhP2P-10,10 and 12(2)12. A detailed description of the experimental procedures used to evaluate bioactivity and hemolysis assays are described above.

[4] = test system: MSSA (SH1000); experiment: MIC against methicillin-susceptible S. aureus (MSSA); format: cell-based; conditions: Staphylococcus aureus; MSSA (SH1000); 72 hours, 37 °C; read-out: MIC
Description: as §1, §2, §3, §4

[5] = test system: A. baumannii; experiment: MIC against A. baumannii; format: cell-based; conditions: Acinetobacter baumannii, 72 h
Description: as §1, §2, §3, §4

[6] = test system: E. faecalis (OG1RF); experiment: MIC against E. faecalis; format: cell-based; conditions: Enterococcus faecalis, 72 h
Description: as §1, §2, §3, §4

[7] = test system: panel of bacteria; conditions: Gram-positive and Gram-negative pathogens; earlier generation compound; cited from earlier work
[8] = test system: E. coli (MC4100); experiment: MIC against E. coli; format: cell-based; conditions: Escherichia coli, 72 hours, 37 °C
Description: as §1, §2, §3, §4

[9] = test system: CA-MRSA (USA300-0114); experiment: MIC against community-acquired methicillin-resistant S. aureus (CA-MRSA); format: cell-based; conditions: Staphylococcus aureus, 72 h
Description: as §1, §2, §3, §4

[10] = test system: HA-MRSA (ATCC 33591); experiment: MIC against hospital-acquired methicillin-resistant S. aureus (HA-MRSA); format: cell-based; conditions: Staphylococcus aureus, 72 h
Description: as §1, §2, §3, §4

[11] = test system: P. aeruginosa; experiment: MBEC, biofilm eradication, P. aeruginosa; format: cell-based, Pseudomonas aeruginosa; conditions: 24 hours, 37 °C, TSB
Description: (§5) A regrowth assay was used to establish the MBEC of a compound to evaluate the antibiofilm activity.
(§6) Biofilm eradication experiments were performed using a pegged-lid microtiter plate assay to determine the MBEC values for compounds of interest, as previously described. […] Sci. Rep. 2017, 7, 2003; and Raval, Y. S., Flurin, L., Mohamed, A., Greenwood-Quaintance, K. E., Beyenal, H., & Patel, R. In Vitro Activity of Hydrogen Peroxide and Hypochlorous Acid Generated by Electrochemical Scaffolds Against Planktonic and Biofilm Bacteria. Antimicrob Agents Chemother. 2021, 65, e01966-20. Briefly, […] of mid-log phase culture diluted to ca. 10^6 CFU/mL in tryptic soy broth (TSB) was added to wells of plat-bottom 96-well plates (Thermo Scientific, 266120) and covered with 96-pegged lid (Thermo Scientific, 445497). Plates were incubated to establish bacterial biofilms after incubation at 37 °C for 24 hours. The pegged lid was then removed, washed with PBS, and transferred to another 96-well plate containing 2-fold serial dilutions of the test compounds (the “challenge plate”). The total volume in each well was […], comprising of […] of compound diluted in water/DMSO, with a starting DMSO concentration of 2.5%, and […] of TSB. Plates were incubated statically at 37 °C for 24 hours. Next, the pegged lids were transferred to a fresh 96-well plate containing […] of TSB and incubated overnight at 37 °C. MBEC values were determined as the lowest test concentration that resulted eradicated biofilm (i.e., wells displaying no turbidity in the final plate).

[12] = test system: HA-MRSA; experiment: MBEC, biofilm eradication, HA-MRSA; format: cell-based, Staphylococcus aureus; conditions: 24 hours, 37 °C, TSB
Description: as §5, §6

[13] = test system: E. faecalis; experiment: MBEC, biofilm eradication, E. faecalis; format: cell-based, Enterococcus faecalis; conditions: 24 hours, 37 °C, TSB
Description: as §5, §6

[14] = test system: A. baumannii; experiment: MBEC, biofilm eradication, A. baumannii; format: cell-based, Acinetobacter baumannii; conditions: 24 hours, 37 °C, TSB
Description: as §5, §6

SMILES | MIC [1] | MIC [2] | Lysis20 [3] | MIC [4] | MIC [5] | MIC [6] | antimicrobial efficacy (in words, earlier work) [7] | MIC [8] | MIC [9] | MIC [10] | antimicrobial activity / bioactivity (in words) [2] | MBEC [11] | MBEC [12] | MBEC [13] | MBEC [14] | hemolysis (lysis20) (in words) [3]
CCCCCCCCCC[P+](CCCCCC[P+](CCCCCCCCCC)(c1ccccc1)c1ccccc1)(c1ccccc1)c1ccccc1 [^PhP6P-10,10, reference compound] | 2 µM | 1 to 4 µM | 8 µM | 1 µM | 4 µM | 2 µM | high degree of antimicrobial efficacy | 2 µM | 1 µM | 1 µM | – | – | – | – | – | –
CCCCCCCCCCCC[P+](CC)(CC)CC[P+](CC)(CC)CCCCCCCCCCCC [^EtP2P-12,12] | 8 µM | – | 8 µM | 1 µM | 2 µM | 16 µM | – | 2 µM | 1 µM | 1 µM | single-digit micromolar activity with just one exception | – | – | – | – | –
CCCCCCCCCC[N+](C)(C)CCCCCCCCCC.[Cl-] [DDAC, didecyldimethylammonium chloride] | – | – | – | – | – | – | – | – | – | – | – | >250 µM | 16 µM | 16 µM | 8 µM | –
CCCCCCCCCCC[P+](CC[P+](CCCCCCCCCCC)(C1CCCCC1)C1CCCCC1)(C1CCCCC1)C1CCCCC1 [^CyP2P-11,11] | 8 µM | 1 to 8 µM | 8 µM | 1 µM | 4 µM | 8 µM | – | 4 µM | 1 µM | 1 µM | single-digit micromolar activity | – | – | – | – | –
CCCCCCCCCCCCC[P+](CC[P+](CCCCCCCCCCCCC)(C1CCCCC1)C1CCCCC1)(C1CCCCC1)C1CCCCC1 [^CyP2P-13,13] | 63 µM | – | 8 µM | 2 µM | 16 µM | 32 µM | – | 32 µM | 2 µM | 1 µM | – | – | – | – | – | –
CCCCCCCCCCCCCC[P+](CC)(CC)CC[P+](CC)(CC)CCCCCCCCCCCCCC [^EtP2P-14,14] | 63 µM | – | 8 µM | 8 µM | 32 µM | 63 µM | – | 8 µM | 4 µM | 4 µM | – | – | – | – | – | –
CCCCCCCCCC[P+](CC[P+](CCCCCCCCCC)(c1ccccc1)c1ccccc1)(c1ccccc1)c1ccccc1 [^PhP2P-10,10, reference compound] | 8 µM | – | 16 µM | 1 µM | 2 µM | 8 µM | – | 4 µM | 0.5 µM | 1 µM | – | – | – | – | – | –
CCCCCCCCCCCCCCCC[P+](CC[P+](CCCCCCCCCCCCCCCC)(C1CCCCC1)C1CCCCC1)(C1CCCCC1)C1CCCCC1 [^CyP2P-16,16] | 63 µM | – | 32 µM | 8 µM | 125 µM | 125 µM | – | 125 µM | 2 µM | 2 µM | – | – | – | – | – | –
CCCCCCCCCCCCCC[P+](C)(C)CC[P+](C)(C)CCCCCCCCCCC [^MeP2P-14,14] | 63 µM | – | 8 µM | 8 µM | 125 µM | 32 µM | – | 32 µM | 4 µM | 8 µM | – | – | – | – | – | –
CCCCCCCCC[P+](CC[P+](CCCCCCCCC)(C1CCCCC1)C1CCCCC1)(C1CCCCC1)C1CCCCC1 [^CyP2P-9,9] | 32 µM | 16 µM | 125 µM | 1 µM | 16 µM | 16 µM | – | 16 µM | 1 µM | 2 µM | – | – | – | – | – | diminished hemolysis over the commercial BAC control
